Test results: PubChem BioAssay (NCI)
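Tested at 5 concentrations; 48 h exposure; 96-well plates; endpoints linearly interpolated, else capped at highest concentration. TGI is the concentration that stops growth completely.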

Experiments:
Test in all cases: NCI tumour cell line growth inhibition, 48 h
[1] = tested on: 786-0 renal
[2] = tested on: A498 renal
[3] = tested on: A549 NSCLC
[4] = tested on: ACHN renal
[5] = tested on: CCRF-CEM leukemia
[6] = tested on: COLO 205 colon
[7] = tested on: DLD-1 colon
[8] = tested on: DMS 114 small cell lung
[9] = tested on: EKVX NSCLC
[10] = tested on: HCC-2998 colon
[11] = tested on: HCT-116 colon
[12] = tested on: HCT-15 colon
[13] = tested on: HL-60(TB) leukemia
[14] = tested on: HOP-18 NSCLC
[15] = tested on: HOP-62 NSCLC
[16] = tested on: HOP-92 NSCLC
[17] = tested on: HT29 colon
[18] = tested on: IGROV1 ovarian
[19] = tested on: K-562 leukemia
[20] = tested on: KM12 colon
[21] = tested on: KM20L2 colon
[22] = tested on: LOX IMVI melanoma
[23] = tested on: LXFL 529 NSCLC
[24] = tested on: M14 melanoma
[25] = tested on: M19-MEL melanoma
[26] = tested on: MALME-3M melanoma
[27] = tested on: MOLT-4 leukemia
[28] = tested on: NCI-H226 lung
[29] = tested on: NCI-H23 lung
[30] = tested on: NCI-H460 lung
[31] = tested on: NCI-H522 lung
[32] = tested on: OVCAR-3 ovarian
[33] = tested on: OVCAR-4 ovarian
[34] = tested on: OVCAR-5 ovarian
[35] = tested on: OVCAR-8 ovarian
[36] = tested on: RPMI-8226 leukemia
[37] = tested on: RXF 393 renal
[38] = tested on: RXF-631 renal
[39] = tested on: SF-268 CNS
[40] = tested on: SF-295 CNS
[41] = tested on: SF-539 CNS
[42] = tested on: SK-MEL-2 melanoma
[43] = tested on: SK-MEL-28 melanoma
[44] = tested on: SK-OV-3 ovarian
[45] = tested on: SN12C renal
[46] = tested on: SNB-19 CNS
[47] = tested on: SNB-75 CNS
[48] = tested on: SNB-78 CNS
[49] = tested on: SW-620 colon
[50] = tested on: TK-10 renal
[51] = tested on: U251 CNS
[52] = tested on: UACC-257 melanoma
[53] = tested on: UACC-62 melanoma
[54] = tested on: UO-31 renal
[55] = tested on: XF 498 CNS
[56] = tested on: CAKI-1 renal
[57] = tested on: DMS 273 small cell lung
[58] = tested on: SK-MEL-5 melanoma
[59] = tested on: SR leukemia

Measured: TGI

O=c1[nH]c(=O)n(C2CC(O)C(O)C(CO)O2)cc1F (stereo not drawn)
> 100 µM: [1] | [2] | [3] | [4] | [5] | [6] | [7] | [8] | [9] | [10] | [11] | [12] | [13] | [14] | [15] | [16] | [17] | [18] | [19] | [20] | [21] | [22] | [23] | [24] | [25] | [26] | [27] | [28] | [29] | [30] | [31] | [32] | [33] | [34] | [35] | [36] | [37] | [38] | [39] | [40] | [41] | [42] | [43] | [44] | [45] | [46] | [47] | [48] | [49] | [50] | [51] | [52] | [53] | [54] | [55]

CCOc1ccc(/C=C2/C(=O)N=C(N)N=C2N)cc1OCC
> 100 µM: [1] | [3] | [4] | [56] | [5] | [6] | [8] | [57] | [9] | [10] | [11] | [12] | [13] | [14] | [16] | [17] | [18] | [19] | [20] | [21] | [22] | [23] | [24] | [25] | [26] | [27] | [28] | [29] | [30] | [31] | [32] | [33] | [34] | [35] | [36] | [37] | [38] | [40] | [42] | [43] | [58] | [44] | [45] | [46] | [47] | [48] | [59] | [49] | [50] | [51] | [52] | [53] | [54] | [55]

Cc1cc(OC(=O)c2c(C)cc(OC(=O)c3c(C)cc(O)cc3O)cc2O)cc(O)c1C(=O)O
> 100 µM: [1] | [2] | [3] | [4] | [56] | [5] | [6] | [7] | [8] | [57] | [9] | [10] | [13] | [15] | [16] | [17] | [18] | [19] | [20] | [21] | [22] | [23] | [24] | [25] | [26] | [27] | [29] | [30] | [31] | [32] | [33] | [34] | [35] | [36] | [37] | [38] | [39] | [40] | [41] | [42] | [43] | [58] | [44] | [45] | [46] | [47] | [48] | [49] | [50] | [51] | [52] | [53] | [54] | [55]

Cc1c(C)c2ccc(OC(C)C(=O)O)cc2oc1=O (stereo not drawn)
99 µM: [55]
> 100 µM: [1] | [2] | [3] | [4] | [56] | [5] | [6] | [7] | [8] | [9] | [10] | [11] | [13] | [14] | [15] | [16] | [17] | [18] | [19] | [20] | [21] | [22] | [23] | [24] | [25] | [26] | [27] | [28] | [29] | [30] | [31] | [32] | [33] | [35] | [36] | [37] | [38] | [39] | [40] | [41] | [43] | [58] | [44] | [45] | [46] | [47] | [48] | [59] | [49] | [50] | [51] | [52] | [53] | [54]
